How the values were obtained:
Solubility in acetone = format: physicochemical; details: acetone added until no undissolved dye remained
Experimental: Solubility of the dyes in acetone was determined by weighing a small amount of dye into a jar and adding small aliquots of acetone until no undissolved dye remained.

[1] = Solubility in acrylate monomer (fluorescence measurement); format: physicochemical
Experimental: Solubility of the dyes was determined in various acrylate monomers using standard fluorescence measurement techniques (SPEX Fluorolog-3 Spectrophotometer, SPEX Industries, Edison, N.J.).

[2] = acrylate monomer BMA (butyl methacrylate)
[3] = acrylate monomer LMA (lauryl methacrylate)

Solubility of dye in acetone (Solubility in acetone)	Solubility of dyes in acrylate monomers [1, 2]	Solubility of dyes in acrylate monomers [1, 3]	SMILES
0.83 g acetone/mg of dye	1217 μg dye/mL of acrylate monomer	816 μg dye/mL of acrylate monomer	C=CC(=O)OCCn1c(=O)c2ccc3sc4ccccc4c4ccc(c1=O)c2c34 [AD-1]
11.6 g acetone/mg of dye	559 μg dye/mL of acrylate monomer	227 μg dye/mL of acrylate monomer	C=CC(=O)OCCn1c(=O)c2ccc3sc4ccccc4c4ccc(c1=O)c2c34 [AD-6]
0.83 g acetone/mg of dye	301 μg dye/mL of acrylate monomer	114 μg dye/mL of acrylate monomer	C=CC(=O)OCCn1c(=O)c2ccc3sc4ccccc4c4ccc(c1=O)c2c34 [AD-7]

SMILES	Solubility of dye in acetone (Solubility in acetone)	Solubility of dyes in acrylate monomers [1, 2]	Solubility of dyes in acrylate monomers [1, 3]
C=CC(=O)OCCOc1cc2c3ccccc3c(=O)c3ccc4c5ccccc5sc1c4c32 [AD-5]	0.65 g acetone/mg of dye	–	–
C=CC(=O)OCCOc1cc2c3ccccc3c(=O)c3ccc4c5ccccc5sc1c4c32 [AD-4]	11.0 g acetone/mg of dye	–	–

Reference: patent US6930184B2, “Functional fluorescent dyes” (3M Innovative Properties Company, priority 2002, dated 2005)
